In publication PMC3087488 (Journal of Oncology, 2011):
Marks after values point to notes of the source that are not given here.

Assay: adverse events in patients (CTCAE version 3.0)
Type: in vivo, human
Details: for Any motesanib-related AE, Grade 3 / Any motesanib-related AE, Grade 4 / Any motesanib-related AE, Grade 5 / Motesanib-related AE: Anorexia / Motesanib-related AE: Constipation / Motesanib-related AE: Deep vein thrombosis / Motesanib-related AE: Dehydration / Motesanib-related AE: Dermatitis acneiform / Motesanib-related AE: Diarrhea / Motesanib-related AE: Erythema / Motesanib-related AE: Fatigue / Motesanib-related AE: Hypertension / Motesanib-related AE: Nausea / Motesanib-related AE: Pulmonary embolism / Motesanib-related AE: Rash / Motesanib-related AE: Vomiting / Motesanib-related Arterial thromboembolic events (all grades) / Motesanib-related Arterial thrombosis, Grade 3 / Motesanib-related Arterial thrombosis, Grade 4 / Motesanib-related Cerebrovascular accident, Grade 2 / Motesanib-related Deep vein thrombosis, Grade 2 / Motesanib-related Deep vein thrombosis, Grade 3 / Motesanib-related Gallbladder disorder, Grade 1 / Motesanib-related Hemorrhagic events, Grade 1 / Motesanib-related Jugular vein thrombosis, Grade 2 / Motesanib-related Neutropenia, Grade 3 / Motesanib-related Pulmonary embolism, Grade 4 / Motesanib-related Pulmonary embolism, Grade 5 / Motesanib-related Venous thromboembolic events (all grades) / Patients with any motesanib-related AE: gemcitabine/cisplatin
Procedure: Adverse events were recorded throughout the study and graded (including DLTs) according to the Common Terminology Criteria for Adverse Events, version 3.0. Samples for assessment of hematology, blood chemistry, urinalysis, and thyroid function were collected on day 1 of each cycle.

[1] = 33 patients who received motesanib, all cohorts
[2] = listed after the 125-mg QD cohort
[3] = motesanib 50 mg QD (n = 8) + panitumumab
[4] = motesanib 75 mg BID (n = 2) + panitumumab
[5] = motesanib 75 mg QD (n = 6) + panitumumab
[6] = motesanib 100 mg QD (n = 6) + panitumumab
[7] = motesanib 125 mg QD (n = 11) + panitumumab

CC1(C)CNc2cc(NC(=O)c3cccnc3NCc3ccncc3)ccc21 [motesanib]
7%: patients with motesanib-related arterial thromboembolic events (all cohorts, three patients)
1 (50) n (%): Any motesanib-related AE, Grade 3 [4] | Any motesanib-related AE, Grade 4 [4] | Motesanib-related AE: Diarrhea [4] | Motesanib-related AE: Hypertension [4] | Motesanib-related Arterial thromboembolic events (all grades) [4] | Motesanib-related Arterial thrombosis, Grade 4 [4]
11 (100) n (%): Patients with any motesanib-related AE [7]
1 (9)^a n (%): Any motesanib-related AE, Grade 5 (motesanib 125 mg QD (n = 11) + panitumumab, sudden death)
2%: patients with grade 2 jugular vein thrombosis (all cohorts, one patient)
29 patients: patients with motesanib-related adverse events (of the 33 patients who received motesanib (88%))
2 patients: serious motesanib-related deep vein thrombosis [2] | serious motesanib-related dehydration [2] | serious motesanib-related diarrhea [2] | grade 3/4 arterial thrombosis (treatment regimen as a whole)
7 (64) n (%): Motesanib-related AE: Diarrhea [7]
1 (9) n (%): Motesanib-related Arterial thromboembolic events (all grades) [7] | Motesanib-related Arterial thrombosis, Grade 3 [7]
3 (27)^c n (%): Motesanib-related Pulmonary embolism, Grade 4 [7]
2 (33) n (%): Any motesanib-related AE, Grade 3 [5] | Any motesanib-related AE, Grade 4 [5] | Motesanib-related AE: Constipation [5] | Motesanib-related AE: Dermatitis acneiform [5] | Motesanib-related AE: Erythema [5] | Motesanib-related AE: Fatigue [5] | Motesanib-related AE: Pulmonary embolism [5] | Motesanib-related Pulmonary embolism, Grade 4 [5] | Any motesanib-related AE, Grade 4 [6] | Motesanib-related AE: Anorexia [6] | Motesanib-related AE: Fatigue [6] | Motesanib-related AE: Hypertension [6] | Motesanib-related AE: Nausea [6] | Motesanib-related AE: Pulmonary embolism [6] | Motesanib-related Venous thromboembolic events (all grades) [6]
1 (17) n (%): Motesanib-related AE: Dehydration [5] | Motesanib-related AE: Diarrhea [5] | Motesanib-related AE: Rash [5] | Motesanib-related Gallbladder disorder, Grade 1 [5] | Motesanib-related Jugular vein thrombosis, Grade 2 [5] | Any motesanib-related AE, Grade 3 [6] | Motesanib-related AE: Deep vein thrombosis [6] | Motesanib-related AE: Erythema [6] | Motesanib-related AE: Vomiting [6] | Motesanib-related Hemorrhagic events, Grade 1 [6]
did not occur: hypothyroidism (all cohorts) | cholecystitis (any tested dose level)
6 (55) n (%): Any motesanib-related AE, Grade 3 [7] | Motesanib-related AE: Fatigue [7]
not tolerable: tolerability of the combination treatment (motesanib, panitumumab, and gemcitabine/cisplatin at the doses and schedule administered)
34%: patients with serious adverse events considered related to motesanib (all cohorts, fourteen patients)
15 patients: motesanib-related hypertension [1] | motesanib-related nausea [1]
2 (100) n (%): Motesanib-related AE: Rash [4] | Patients with any motesanib-related AE [4]
4 (67) n (%): Motesanib-related AE: Hypertension [5] | Patients with any motesanib-related AE [6]
1 (17)^b n (%): Motesanib-related Deep vein thrombosis, Grade 3 [6]
6 (100) n (%): Patients with any motesanib-related AE [5]
10 patients: motesanib-related diarrhea [1]
15%: patients with motesanib-related serious adverse event with a worst grade of 4 (all cohorts, six patients)
14 patients: motesanib-related fatigue [1]
3 (27) n (%): Any motesanib-related AE, Grade 4 [7] | Motesanib-related AE: Dehydration [7] | Motesanib-related AE: Pulmonary embolism [7] | Motesanib-related Hemorrhagic events, Grade 1 [7] | Motesanib-related Venous thromboembolic events (all grades) [7]
2 (18)^c n (%): Motesanib-related Deep vein thrombosis, Grade 3 [7]
3 (50) n (%): Motesanib-related AE: Vomiting [5] | Motesanib-related Venous thromboembolic events (all grades) [5]
5 (83) n (%): Motesanib-related AE: Nausea [5]
2 (33)^b n (%): Motesanib-related Pulmonary embolism, Grade 4 [6]
24%: patients with motesanib-related venous thromboembolic events (all cohorts, 10 patients)
3 (38) n (%): Motesanib-related AE: Hypertension [3]
0 (0) n (%): Any motesanib-related AE, Grade 4 [3] | Motesanib-related AE: Constipation [3] | Motesanib-related AE: Dehydration [3] | Motesanib-related AE: Rash [3] | Motesanib-related Arterial thrombosis, Grade 3 [3] | Motesanib-related Arterial thrombosis, Grade 4 [3] | Motesanib-related Deep vein thrombosis, Grade 3 [3] | Motesanib-related Gallbladder disorder, Grade 1 [3] | Motesanib-related Jugular vein thrombosis, Grade 2 [3] | Motesanib-related Pulmonary embolism, Grade 4 [3] | Any motesanib-related AE, Grade 5 [4] | Motesanib-related AE: Anorexia [4] | Motesanib-related AE: Constipation [4] | Motesanib-related AE: Deep vein thrombosis [4] | Motesanib-related AE: Dehydration [4] | Motesanib-related AE: Dermatitis acneiform [4] | Motesanib-related AE: Erythema [4] | Motesanib-related AE: Fatigue [4] | Motesanib-related AE: Nausea [4] | Motesanib-related AE: Pulmonary embolism [4] | Motesanib-related AE: Vomiting [4] | Motesanib-related Arterial thrombosis, Grade 3 [4] | Motesanib-related Cerebrovascular accident, Grade 2 [4] | Motesanib-related Deep vein thrombosis, Grade 2 [4] | Motesanib-related Deep vein thrombosis, Grade 3 [4] | Motesanib-related Gallbladder disorder, Grade 1 [4] | Motesanib-related Hemorrhagic events, Grade 1 [4] | Motesanib-related Jugular vein thrombosis, Grade 2 [4] | Motesanib-related Neutropenia, Grade 3 [4] | Motesanib-related Pulmonary embolism, Grade 4 [4] | Motesanib-related Pulmonary embolism, Grade 5 [4] | Motesanib-related Venous thromboembolic events (all grades) [4] | Any motesanib-related AE, Grade 5 [5] | Motesanib-related AE: Anorexia [5] | Motesanib-related AE: Deep vein thrombosis [5] | Motesanib-related Arterial thromboembolic events (all grades) [5] | Motesanib-related Arterial thrombosis, Grade 3 [5] | Motesanib-related Arterial thrombosis, Grade 4 [5] | Motesanib-related Cerebrovascular accident, Grade 2 [5] | Motesanib-related Deep vein thrombosis, Grade 2 [5] | Motesanib-related Deep vein thrombosis, Grade 3 [5] | Motesanib-related Hemorrhagic events, Grade 1 [5] | Motesanib-related Neutropenia, Grade 3 [5] | Motesanib-related Pulmonary embolism, Grade 5 [5] | Any motesanib-related AE, Grade 5 [6] | Motesanib-related AE: Constipation [6] | Motesanib-related AE: Dehydration [6] | Motesanib-related AE: Dermatitis acneiform [6] | Motesanib-related AE: Diarrhea [6] | Motesanib-related AE: Rash [6] | Motesanib-related Arterial thromboembolic events (all grades) [6] | Motesanib-related Arterial thrombosis, Grade 3 [6] | Motesanib-related Arterial thrombosis, Grade 4 [6] | Motesanib-related Cerebrovascular accident, Grade 2 [6] | Motesanib-related Deep vein thrombosis, Grade 2 [6] | Motesanib-related Gallbladder disorder, Grade 1 [6] | Motesanib-related Jugular vein thrombosis, Grade 2 [6] | Motesanib-related Neutropenia, Grade 3 [6] | Motesanib-related Pulmonary embolism, Grade 5 [6] | Motesanib-related AE: Erythema [7] | Motesanib-related Arterial thrombosis, Grade 4 [7] | Motesanib-related Cerebrovascular accident, Grade 2 [7] | Motesanib-related Deep vein thrombosis, Grade 2 [7] | Motesanib-related Gallbladder disorder, Grade 1 [7] | Motesanib-related Jugular vein thrombosis, Grade 2 [7] | Motesanib-related Neutropenia, Grade 3 [7] | Motesanib-related Pulmonary embolism, Grade 5 [7]
10%: patients with deep vein thrombosis (grade 2 or 3) (all cohorts, four patients)
3 patients: serious motesanib-related pulmonary embolism [2] | grade 3 deep vein thrombosis (treatment regimen as a whole)
4 (36) n (%): Motesanib-related AE: Anorexia [7] | Motesanib-related AE: Nausea [7]
2 (25) n (%): Any motesanib-related AE, Grade 3 [3] | Motesanib-related AE: Anorexia [3] | Motesanib-related AE: Vomiting [3] | Motesanib-related Venous thromboembolic events (all grades) [3]
13 patients: patients who discontinued motesanib because of adverse events (all cohorts)
5 (45) n (%): Motesanib-related AE: Hypertension [7]
20%: patients with grade 4 or 5 pulmonary embolism (all cohorts, eight patients (one grade 5))
one: grade 1 jaundice (125 mg QD cohort)
One: grade 3 cholelithiasis (100 mg QD cohort)
1 (13) n (%): Any motesanib-related AE, Grade 5 [3] | Motesanib-related AE: Deep vein thrombosis [3] | Motesanib-related AE: Dermatitis acneiform [3] | Motesanib-related AE: Diarrhea [3] | Motesanib-related AE: Erythema [3] | Motesanib-related AE: Pulmonary embolism [3] | Motesanib-related Arterial thromboembolic events (all grades) [3] | Motesanib-related Cerebrovascular accident, Grade 2 [3] | Motesanib-related Deep vein thrombosis, Grade 2 [3] | Motesanib-related Hemorrhagic events, Grade 1 [3] | Motesanib-related Neutropenia, Grade 3 [3] | Motesanib-related Pulmonary embolism, Grade 5 [3]
2 (18) n (%): Motesanib-related AE: Constipation [7] | Motesanib-related AE: Deep vein thrombosis [7] | Motesanib-related AE: Dermatitis acneiform [7] | Motesanib-related AE: Rash [7] | Motesanib-related AE: Vomiting [7]
8 patients: motesanib-related anorexia [1] | motesanib-related pulmonary embolism [1] | motesanib-related vomiting [1] | patients with serious motesanib-related adverse events (125-mg QD cohort) | grade 4 pulmonary embolism (treatment regimen as a whole)
6 (75) n (%): Patients with any motesanib-related AE [3]
1 patients: serious motesanib-related arterial thrombosis [2] | serious motesanib-related asthenia [2] | serious motesanib-related atrial fibrillation [2] | serious motesanib-related confusional state [2] | serious motesanib-related headache [2] | serious motesanib-related hyponatremia [2] | serious motesanib-related sudden death [2]
Two: deaths considered related to motesanib and panitumumab (pulmonary embolism, 50 mg QD, and sudden death, 125 mg QD, within 30 days of treatment)
4 (50) n (%): Motesanib-related AE: Fatigue [3] | Motesanib-related AE: Nausea [3]
